One compound from BindingDB's records for doi:10.1016/j.bmcl.2010.04.069 (Boehringer Ingelheim Pharmaceuticals, 2010) can be followed below.

This assay in a line: Inhibition of CDC42.

A word on the IC50: it is the concentration that inhibits the measured activity by half. A higher IC50 goes with weaker potency in that assay.

`O=C(Nc1cc2cc[nH]c(=O)c2cc1Cl)[C@@H]1CNC[C@H]1c1ccc(Cl)cc1` [(3S,4R)-N-(7-chloro-1-oxo-1,2-dihydroisoquinolin-6-yl)-4-(4-chlorophenyl)pyrrolidine-3-carboxamide]: half-maximal inhibition (IC50) was put at 54 nM.
